Among the data in patent US20240083861A1, “HSD17B13 INHIBITORS AND USES THEREOF” (FL2022-001, Inc., priority 2020, published 2024) are IC50 and inhibition values, retold here.

Some results are limits rather than exact numbers.

The target of one test is T1, Recombinant human HSD17B13 enzyme (Homo sapiens, UniProt Q7Z5P4).
T1 sequence (Q7Z5P4 20-300): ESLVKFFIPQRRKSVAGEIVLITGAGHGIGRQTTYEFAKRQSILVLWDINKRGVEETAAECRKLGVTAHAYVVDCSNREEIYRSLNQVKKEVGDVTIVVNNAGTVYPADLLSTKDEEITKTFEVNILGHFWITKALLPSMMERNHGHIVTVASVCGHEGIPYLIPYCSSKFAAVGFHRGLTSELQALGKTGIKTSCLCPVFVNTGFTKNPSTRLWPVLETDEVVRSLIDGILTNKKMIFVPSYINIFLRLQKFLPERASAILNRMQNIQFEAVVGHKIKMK
Nature of the test: HSD17b13 NAD(P)H-Glo biochemical assay. The following applies: 50 uM estradiol, 1 mM NAD+, NAD(P)H-Glo luminescence; read-out: HSD17β13 IC50. The method in brief: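 Luminescent NAD(P)H-Glo read-out, taken after 1 hour at RT, measured cofactor reduction. Substrate and cofactor were estradiol at 50 uM and NAD+ at 1 mM final, reacted with the recombinant human enzyme for 3 hours at 37° C in 20 mM Tris pH7.4, 0.002% Tween-20, 0.02% BSA. Compound was pre-incubated with enzyme for 20 minutes at RT.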
As usually defined, the IC50 is the concentration at which inhibition is half-maximal. `CS(=O)(=O)N1CCN(c2cnc3c(-c4cc(O)c(F)c(C(F)(F)F)c4)nn(C4CCCCO4)c3n2)CC1` (centres unmarked) [Compound 10.05, 2-Fluoro-5-(6-(4-(methylsulfonyl)piperazin-1-yl)-1-(tetrahydro-2H-pyran-2-yl)-1H-pyrazolo[3,4-b]pyrazin-3-yl)-3-(trifluoromethyl)phenol]: the IC50 was under 100 nM.
With `Oc1cc(-c2n[nH]c3nc(N4CC5(CCOCC5)C4)cnc23)cc(C(F)(F)F)c1F` [Compound 10.06, 5-(6-(7-Oxa-2-azaspiro[3.5]nonan-2-yl)-1H-pyrazolo[3,4-b]pyrazin-3-yl)-2-fluoro-3-(trifluoromethyl)phenol], the IC50 fell in the range of 100 to 1000 nM.
Same read-out and setting: then `CS(=O)(=O)N1CCN(c2ccc3c(-c4cc(C(F)(F)F)cc(O)c4F)n[nH]c3c2)CC1` [Compound 11, 2-Fluoro-3-(6-(4-(methylsulfonyl)piperazin-1-yl)-1H-indazol-3-yl)-5-(trifluoromethyl)phenol], with 1000 to 30000 nM.
The same measure, in the same setting: then `CS(=O)(=O)N1CCN(c2cc3[nH]nc(-c4cc(C(F)(F)F)cc(O)c4F)c3cn2)CC1` [Compound 11.02, 2-Fluoro-3-(6-(4-(methylsulfonyl)piperazin-1-yl)-1H-pyrazolo[4,3-c]pyridin-3-yl)-5-(trifluoromethyl)phenol], with 100 to 1000 nM; and `Oc1c(F)c(-c2n[nH]c3cc(N4CCOCC45CC5)ncc23)cc(C(F)(F)F)c1F` [Compound 11.03, 3-(6-(7-Oxa-4-azaspiro[2.5]octan-4-yl)-1H-pyrazolo[4,3-c]pyridin-3-yl)-2,6-difluoro-5-(trifluoromethyl)phenol], with under 100 nM.
Turning to `CN(c1cc2[nH]nc(-c3cc(C(F)(F)F)c(F)c(O)c3F)c2cn1)C1CCOCC1` [Compound 11.04, 2,6-Difluoro-3-(6-(methyl(tetrahydro-2H-pyran-4-yl)amino)-1H-pyrazolo[4,3-c]pyridin-3-yl)-5-(trifluoromethyl)phenol], the IC50 was under 100 nM.
On the same count and under the same terms, then `Cn1nc(-c2cc(C(F)(F)F)c(F)c(O)c2F)c2ncc(N3CCN(S(C)(=O)=O)CC3)nc21` [Compound 12, 2,6-Difluoro-3-(1-methyl-6-(4-(methylsulfonyl)piperazin-1-yl)-1H-pyrazolo[3,4-b]pyrazin-3-yl)-5-(trifluoromethyl)phenol], with 100 to 1000 nM.
As for `Cn1nc(-c2cc(C(F)(F)F)c(F)c(O)c2F)c2cnc(N3CCN(S(C)(=O)=O)CC3)nc21` [Compound 12.01, 2,6-Difluoro-3-(1-methyl-6-(4-(methylsulfonyl)piperazin-1-yl)-1H-pyrazolo[3,4-d]pyrimidin-3-yl)-5-(trifluoromethyl)phenol], the IC50 is under 100 nM.
As to `Cn1nc(-c2cc(C(F)(F)F)c(F)c(O)c2F)c2ccc(N3CCN(S(C)(=O)=O)CC3)nc21` [Compound 12.02, 2,6-Difluoro-3-(1-methyl-6-(4-(methylsulfonyl)piperazin-1-yl)-1H-pyrazolo[3,4-b]pyridin-3-yl)-5-(trifluoromethyl)phenol], the IC50 was under 100 nM.
Consider `Cn1nc(-c2cc(C(F)(F)F)c(F)c(O)c2F)c2cnc(N3CCOCC34CC4)nc21` [Compound 12.03, 2,6-Difluoro-3-(1-methyl-6-(7-oxa-4-azaspiro[2.5]octan-4-yl)-1H-pyrazolo[3,4-d]pyrimidin-3-yl)-5-(trifluoromethyl)phenol], for which the IC50 was under 100 nM.
The same measure, in the same setting: then `CN(c1ncc2c(-c3cc(C(F)(F)F)c(F)c(O)c3F)nn(C)c2n1)C1CC1` [Compound 12.04, 3-(6-(Cyclopropyl(methyl)amino)-1-methyl-1H-pyrazolo[3,4-d]pyrimidin-3-yl)-2,6-difluoro-5-(trifluoromethyl)phenol], with under 100 nM.
Same read-out and setting: the figure for `Cn1nc(-c2cc(C(F)(F)F)c(F)c(O)c2F)c2cnc(N3CCN(S(C)(=O)=O)CC3)cc21` [Compound 12.05, 2,6-Difluoro-3-(1-methyl-6-(4-(methylsulfonyl)piperazin-1-yl)-1H-pyrazolo[4,3-c]pyridin-3-yl)-5-(trifluoromethyl)phenol] is under 100 nM; for `Cn1nc(-c2ccc(Cl)c(O)c2F)c2cnc(N3CCN(S(C)(=O)=O)C4(CC4)C3)nc21` [Compound 12.06, 6-Chloro-2-fluoro-3-(1-methyl-6-(4-(methylsulfonyl)-4,7-diazaspiro[2.5]octan-7-yl)-1H-pyrazolo[3,4-d]pyrimidin-3-yl)phenol] it is 100 to 1000 nM.
`Cn1nc(-c2ccc(Cl)c(O)c2Cl)c2cnc(N3CCN(S(C)(=O)=O)C4(CC4)C3)nc21` [Compound 12.07, 2,6-Dichloro-3-(1-methyl-6-(4-(methylsulfonyl)-4,7-diazaspiro[2.5]octan-7-yl)-1H-pyrazolo[3,4-d]pyrimidin-3-yl)phenol]: the IC50 is 1000 to 30000 nM.
Still for that read-out and setting: then `CN(c1ncc2c(-c3cc(C(F)(F)F)c(F)c(O)c3F)nn(C)c2c1Cl)C1CCOCC1` [Compound 12.08, 3-(7-Chloro-1-methyl-6-(methyl(tetrahydro-2H-pyran-4-yl)amino)-1H-pyrazolo[4,3-c]pyridin-3-yl)-2,6-difluoro-5-(trifluoromethyl)phenol], with under 100 nM; and `Cn1nc(-c2cc(O)cc3ccccc23)c2cnc(N3CCN(S(C)(=O)=O)C4(CC4)C3)nc21` [Compound 12.09, 4-(1-Methyl-6-(4-(methylsulfonyl)-4,7-diazaspiro[2.5]octan-7-yl)-1H-pyrazolo[3,4-d]pyrimidin-3-yl)naphthalen-2-ol], with 1000 to 30000 nM.
On to `CS(=O)(=O)N1CCC(c2cc3[nH]nc(-c4cc(C(F)(F)F)cc(O)c4F)c3cn2)CC1` [Compound 13, 2-Fluoro-3-(6-(1-(methylsulfonyl)piperidin-4-yl)-1H-pyrazolo[4,3-c]pyridin-3-yl)-5-(trifluoromethyl)phenol], for which the IC50 fell in the range of 100 to 1000 nM.
Still for that read-out and setting: the figure for `Cn1nc(-c2cc(C(F)(F)F)cc(O)c2F)c2cnc(C3CCN(S(C)(=O)=O)CC3)cc21` [Compound 13.01, 2-Fluoro-3-(1-methyl-6-(1-(methylsulfonyl)piperidin-4-yl)-1H-pyrazolo[4,3-c]pyridin-3-yl)-5-(trifluoromethyl)phenol] is 100 to 1000 nM; for `CS(=O)(=O)N1CC=C(c2ccc3c(-c4cc(O)c(F)c(C(F)(F)F)c4)n[nH]c3c2)CC1` [Compound 14, 2-Fluoro-5-(6-(1-(methylsulfonyl)-1,2,3,6-tetrahydropyridin-4-yl)-1H-indazol-3-yl)-3-(trifluoromethyl)phenol] it is 100 to 1000 nM; for `Cn1nc(-c2cc(O)c(F)c(C(F)(F)F)c2)c2ccc(C3=CCN(S(C)(=O)=O)CC3)cc21` [Compound 14.01, 2-Fluoro-5-(1-methyl-6-(1-(methylsulfonyl)-1,2,3,6-tetrahydropyridin-4-y1)-1H-indazol-3-y1)-3-(trifluoromethyl)phenol] it is under 100 nM.
On the same count and under the same terms, then `Cc1cc(-c2n[nH]c3cc(C4=CCN(S(C)(=O)=O)CC4)ccc23)c(F)c(O)c1F` [Compound 14.02, 2,6-Difluoro-3-methyl-5-(6-(1-(methylsulfonyl)-1,2,3,6-tetrahydropyridin-4-y1)-1H-indazol-3-y1)phenol], with under 100 nM.
On the same count and under the same terms, then `CS(=O)(=O)N1CC=C(c2cc3[nH]nc(-c4cc(O)c(F)c(C(F)(F)F)c4)c3cn2)CC1` [Compound 14.03, 2-Fluoro-5-(6-(1-(methylsulfony1)-1,2,3,6-tetrahydropyridin-4-yl)-1H-pyrazolo[4,3-c]pyridin-3-yl)-3-(trifluoromethyl)phenol], with 100 to 1000 nM; and `CS(=O)(=O)N1CCC(c2ccc3c(-c4cc(O)c(F)c(C(F)(F)F)c4)n[nH]c3c2)CC1` [Compound 15, 2-Fluoro-5-(6-(1-(methylsulfonyl)piperidin-4-yl)-1H-indazol-3-yl)-3-(trifluoromethyl)phenol], with 100 to 1000 nM; and `Cc1cc(-c2n[nH]c3cc(C4CCN(S(C)(=O)=O)CC4)ccc23)c(F)c(O)c1F` [Compound 15.01, 2,6-Difluoro-3-methyl-5-(6-(1-(methylsulfony1)piperidin-4-y1)-1H-indazol-3-yl)phenol], with under 100 nM.
In the case of `Cn1nc(-c2cc(O)c(F)c(C(F)(F)F)c2)c2ccc(C3CCN(S(C)(=O)=O)CC3)cc21` [Compound 15.02, 2-Fluoro-5-(1-methyl-6-(1-(methylsulfonyl)piperidin-4-y1)-1H-indazol-3-yl)-3-(trifluoromethyl)phenol], the IC50 was in the range of 100 to 1000 nM.
Same read-out and setting: then `Cn1nc(-c2cc(C(F)(F)F)c(F)c(O)c2F)c2cnc(C3CCN(S(C)(=O)=O)CC3)cc21` [Compound 15.03, 2,6-Difluoro-3-(1-methyl-6-(1-(methylsulfony1)piperidin-4-y1)-1H-pyrazolo[4,3-c]pyridin-3-y1)-5-(trifluoromethyl)phenol], with 100 to 1000 nM; and `Cn1nc(-c2cc(C(F)(F)F)c(F)c(O)c2F)c2cnc(C3CCN(S(C)(=O)=O)CC3)nc21` [Compound 15.04, 2,6-Difluoro-3-(1-methyl-6-(1-(methylsulfony1)piperidin-4-y1)-1H-pyrazolo[3,4-d]pyrimidin-3-yl)-5-(trifluoromethyl)phenol], with under 100 nM.

The same test, now with this note: at 10 uM compound; read-out: HSD17β13 % inhibition at 10 uM.
A word on the inhibition: it is the change of the read-out against control, counted positive when it falls. For the compound `Cn1nc(-c2cccc(O)c2)c2cnc(N3CCN(S(C)(=O)=O)C4(CC4)C3)nc21` [Compound 12.10, 3-(1-Methyl-6-(4-(methylsulfonyl)-4,7-diazaspiro[2.5]octan-7-yl)-1H-pyrazolo[3,4-d]pyrimidin-3-yl)phenol], the inhibition at 10 µM is under 20%.

Still in this test, the particulars now being: at 30 uM compound; read-out: HSD17β13 % inhibition at 30 uM.
`CS(=O)(=O)N1CCN(c2ccc3c(-c4ccc(F)c(O)c4F)n[nH]c3c2)CC1` [Compound 11.01, 2,6-Difluoro-3-(6-(4-(methylsulfonyl)piperazin-1-yl)-1H-indazol-3-yl)phenol]: the inhibition at 30 µM was 41%.
